# Source: ChEMBL document CHEMBL3576778, “Structure-Activity Relationship Studies of a Series of Semisynthetic Lipopeptides Leading to the Discovery of Surotomycin, a Novel Cyclic Lipopeptide Being Developed for the Treatment of Clostridium difficile-Associated Diarrhea” (J Med Chem, 2015)
# Tests used:
# [1] = system: Staphylococcus aureus; assay: Antimicrobial activity against daptomycin-non-susceptible Staphylococcus aureus 1326 incubated anaerobically at 37 degC for 48 hrs by agar dilution method; assay type: functional; details: Staphylococcus aureus, 1326, 48 h
# [2] = system: Staphylococcus aureus; assay: Antimicrobial activity against daptomycin-non-susceptible Staphylococcus aureus 5091 incubated anaerobically at 37 degC for 48 hrs by agar dilution method; assay type: functional; details: Staphylococcus aureus, 5091, 48 h
# [3] = system: Staphylococcus aureus; assay: Antimicrobial activity against daptomycin-non-susceptible Staphylococcus aureus 5006 incubated anaerobically at 37 degC for 48 hrs by agar dilution method; assay type: functional; details: Staphylococcus aureus, 5006, 48 h
# [4] = system: Staphylococcus aureus; assay: Antimicrobial activity against daptomycin-susceptible Staphylococcus aureus ATCC 29213 incubated anaerobically at 37 degC for 48 hrs by agar dilution method; assay type: functional; details: ATCC 29213, 48 h
# [5] = system: Staphylococcus aureus; assay: Antimicrobial activity against daptomycin-non-susceptible Staphylococcus aureus 5005 incubated anaerobically at 37 degC for 48 hrs by agar dilution method; assay type: functional; details: Staphylococcus aureus, 5005, 48 h
# [6] = system: Staphylococcus aureus; assay: Antimicrobial activity against daptomycin-non-susceptible Staphylococcus aureus 5060 incubated anaerobically at 37 degC for 48 hrs by agar dilution method; assay type: functional; details: Staphylococcus aureus, 5060, 48 h
# [7] = system: Staphylococcus aureus; assay: Antimicrobial activity against daptomycin-non-susceptible Staphylococcus aureus 1146 incubated anaerobically at 37 degC for 48 hrs by agar dilution method; assay type: functional; details: Staphylococcus aureus, 1146, 48 h
# [8] = system: Clostridioides difficile; assay: Antimicrobial activity against daptomycin-resistant Clostridium difficile NAP1 incubated anaerobically at 37 degC for 48 hrs by agar dilution method; assay type: functional; details: NAP1, 48 h
# [9] = system: Staphylococcus aureus; assay: Antimicrobial activity against daptomycin-non-susceptible Staphylococcus aureus 5033 incubated anaerobically at 37 degC for 48 hrs by agar dilution method; assay type: functional; details: Staphylococcus aureus, 5033, 48 h
# [10] = system: Staphylococcus aureus; assay: Antimicrobial activity against daptomycin-non-susceptible Staphylococcus aureus 1616 incubated anaerobically at 37 degC for 48 hrs by agar dilution method; assay type: functional; details: Staphylococcus aureus, 1616, 48 h
# [11] = system: Staphylococcus aureus; assay: Antimicrobial activity against daptomycin-non-susceptible Staphylococcus aureus 278 incubated anaerobically at 37 degC for 48 hrs by agar dilution method; assay type: functional; details: Staphylococcus aureus, 278, 48 h
# [12] = system: Staphylococcus aureus; assay: Antimicrobial activity against daptomycin-non-susceptible Staphylococcus aureus 5014 incubated anaerobically at 37 degC for 48 hrs by agar dilution method; assay type: functional; details: Staphylococcus aureus, 5014, 48 h
# [13] = system: Staphylococcus aureus; assay: Antimicrobial activity against daptomycin-non-susceptible Staphylococcus aureus 1179 incubated anaerobically at 37 degC for 48 hrs by agar dilution method; assay type: functional; details: Staphylococcus aureus, 1179, 48 h
# [14] = system: Staphylococcus aureus; assay: Antimicrobial activity against daptomycin-non-susceptible Staphylococcus aureus 42 incubated anaerobically at 37 degC for 48 hrs by agar dilution method; assay type: functional; details: Staphylococcus aureus, 42, 48 h
# [15] = system: Staphylococcus aureus; assay: Antimicrobial activity against daptomycin-non-susceptible Staphylococcus aureus 5012 incubated anaerobically at 37 degC for 48 hrs by agar dilution method; assay type: functional; details: Staphylococcus aureus, 5012, 48 h
# [16] = system: Staphylococcus aureus; assay: Antimicrobial activity against daptomycin-non-susceptible Staphylococcus aureus 5076 incubated anaerobically at 37 degC for 48 hrs by agar dilution method; assay type: functional; details: Staphylococcus aureus, 5076, 48 h
# [17] = system: Staphylococcus aureus; assay: Antimicrobial activity against daptomycin-non-susceptible Staphylococcus aureus 5059 incubated anaerobically at 37 degC for 48 hrs by agar dilution method; assay type: functional; details: Staphylococcus aureus, 5059, 48 h
# [18] = system: Staphylococcus aureus; assay: Antimicrobial activity against daptomycin-non-susceptible Staphylococcus aureus 5034 incubated anaerobically at 37 degC for 48 hrs by agar dilution method; assay type: functional; details: Staphylococcus aureus, 5034, 48 h
# [19] = system: Staphylococcus aureus; assay: Antimicrobial activity against daptomycin-non-susceptible Staphylococcus aureus 5081 incubated anaerobically at 37 degC for 48 hrs by agar dilution method; assay type: functional; details: Staphylococcus aureus, 5081, 48 h
# [20] = system: Staphylococcus aureus; assay: Antimicrobial activity against daptomycin-non-susceptible Staphylococcus aureus 5004 incubated anaerobically at 37 degC for 48 hrs by agar dilution method; assay type: functional; details: Staphylococcus aureus, 5004, 48 h
# [21] = system: Staphylococcus aureus; assay: Antimicrobial activity against daptomycin-non-susceptible Staphylococcus aureus 5030 incubated anaerobically at 37 degC for 48 hrs by agar dilution method; assay type: functional; details: Staphylococcus aureus, 5030, 48 h
# [22] = system: Enterococcus faecalis; assay: Antimicrobial activity against daptomycin-resistant Enterococcus faecalis ATCC 49452 incubated anaerobically at 37 degC for 48 hrs by agar dilution method; assay type: functional; details: ATCC 49452, 48 h
# [23] = system: Staphylococcus aureus; assay: Antimicrobial activity against daptomycin-non-susceptible Staphylococcus aureus 1145 incubated anaerobically at 37 degC for 48 hrs by agar dilution method; assay type: functional; details: Staphylococcus aureus, 1145, 48 h
# [24] = system: Staphylococcus aureus; assay: Antimicrobial activity against daptomycin-non-susceptible Staphylococcus aureus 5016 incubated anaerobically at 37 degC for 48 hrs by agar dilution method; assay type: functional; details: Staphylococcus aureus, 5016, 48 h
# [25] = system: Staphylococcus aureus; assay: Antimicrobial activity against daptomycin-non-susceptible Staphylococcus aureus 5010 incubated anaerobically at 37 degC for 48 hrs by agar dilution method; assay type: functional; details: Staphylococcus aureus, 5010, 48 h
# [26] = system: Staphylococcus aureus; assay: Antimicrobial activity against daptomycin-non-susceptible Staphylococcus aureus 5017 incubated anaerobically at 37 degC for 48 hrs by agar dilution method; assay type: functional; details: Staphylococcus aureus, 5017, 48 h
# [27] = system: Enterococcus faecium; assay: Antimicrobial activity against daptomycin-resistant Enterococcus faecium ATCC 6569 incubated anaerobically at 37 degC for 48 hrs by agar dilution method; assay type: functional; details: ATCC 6569, 48 h
# [28] = system: Staphylococcus aureus; assay: Antimicrobial activity against daptomycin-non-susceptible Staphylococcus aureus 5063 incubated anaerobically at 37 degC for 48 hrs by agar dilution method; assay type: functional; details: Staphylococcus aureus, 5063, 48 h
# [29] = system: Staphylococcus aureus; assay: Antimicrobial activity against daptomycin-non-susceptible Staphylococcus aureus 5008 incubated anaerobically at 37 degC for 48 hrs by agar dilution method; assay type: functional; details: Staphylococcus aureus, 5008, 48 h
# [30] = system: Staphylococcus aureus; assay: Antimicrobial activity against daptomycin-non-susceptible Staphylococcus aureus 5080 incubated anaerobically at 37 degC for 48 hrs by agar dilution method; assay type: functional; details: Staphylococcus aureus, 5080, 48 h
# [31] = system: Staphylococcus aureus; assay: Antimicrobial activity against daptomycin-non-susceptible Staphylococcus aureus 5003 incubated anaerobically at 37 degC for 48 hrs by agar dilution method; assay type: functional; details: Staphylococcus aureus, 5003, 48 h
# [32] = system: Clostridioides difficile; assay: Antimicrobial activity against metronidazole-resistant Clostridium difficile; assay type: functional
# [33] = system: Clostridioides difficile; assay: Antimicrobial activity against daptomycin-resistant Clostridium difficile ATCC 43596 infected in Syrian golden hamster model of Clostridium difficile-associated diarrhea assessed as protection against microbial infection by measuring survival at day 25 to 26 at 0.5 mg/kg treated once daily for 5 consecutive days starting 4 hrs after spore inoculation; assay type: functional
# [34] = system: Clostridioides difficile; assay: Antimicrobial activity against vancomycin-resistant Clostridium difficile; assay type: functional
# [35] = system: Bacteroides fragilis; assay: Toxicity against Bacteroides fragilis assessed as inhibition of microbe growth; assay type: organism-based
smiles,measurement,setting,value
CCCCCCCCCC(=O)N[C@@H](Cc1c[nH]c2ccccc12)C(=O)N[C@H](CC(N)=O)C(=O)N[C@@H](CC(=O)O)C(=O)N[C@@H]1C(=O)NCC(=O)N[C@@H](CCCN)C(=O)N[C@@H](CC(=O)O)C(=O)N[C@H](C)C(=O)N[C@@H](CC(=O)O)C(=O)NCC(=O)N[C@H](CO)C(=O)N[C@@H]([C@H](C)CC(=O)O)C(=O)N[C@@H](CC(=O)c2ccccc2N)C(=O)O[C@@H]1C,MIC,[1],4 µg/mL
same,MIC,[2],2 µg/mL
same,MIC,[3],2 µg/mL
same,MIC,[4],0.5 µg/mL
same,MIC,[5],4 µg/mL
same,MIC,[6],4 µg/mL
same,MIC,[7],1 µg/mL
same,MIC,[8],2 µg/mL
same,MIC,[9],1 µg/mL
same,MIC,[10],16 µg/mL
same,MIC,[11],16 µg/mL
same,MIC,[12],0.5 µg/mL
same,MIC,[13],2 µg/mL
same,MIC,[14],0.5 µg/mL
same,MIC,[15],2 µg/mL
same,MIC,[16],2 µg/mL
same,MIC,[17],4 µg/mL
same,MIC,[18],2 µg/mL
same,MIC,[19],4 µg/mL
same,MIC,[20],1 µg/mL
same,MIC,[21],8 µg/mL
same,MIC,[22],> 32 µg/mL
same,MIC,[23],1 µg/mL
same,MIC,[24],4 µg/mL
same,MIC,[25],0.5 µg/mL
same,MIC,[26],4 µg/mL
same,MIC,[27],> 32 µg/mL
same,MIC,[28],8 µg/mL
same,MIC,[29],2 µg/mL
same,MIC,[30],4 µg/mL
same,MIC,[31],2 µg/mL
Cc1ncc([N+](=O)[O-])n1CCO [METRONIDAZOLE],MIC,[32],≥ 8 µg/mL
CN[C@H](CC(C)C)C(=O)N[C@H]1C(=O)N[C@@H](CC(N)=O)C(=O)N[C@H]2C(=O)N[C@H]3C(=O)N[C@H](C(=O)N[C@H](C(=O)O)c4cc(O)cc(O)c4-c4cc3ccc4O)[C@H](O)c3ccc(c(Cl)c3)Oc3cc2cc(c3O[C@@H]2O[C@H](CO)[C@@H](O)[C@H](O)[C@H]2O[C@H]2C[C@](C)(N)[C@H](O)[C@H](C)O2)Oc2ccc(cc2Cl)[C@H]1O [VANCOMYCIN],survival at 0.5 mg/kg,[33],25%
same,MIC,[34],≥ 4 µg/mL
CCCCCc1ccc(/C(C)=C/C(=O)N[C@@H](Cc2c[nH]c3ccccc23)C(=O)N[C@H](CC(N)=O)C(=O)N[C@@H](CC(=O)O)C(=O)N[C@@H]2C(=O)NCC(=O)N[C@@H](CCCN)C(=O)N[C@@H](CC(=O)O)C(=O)N[C@H](C)C(=O)N[C@@H](CC(=O)O)C(=O)NCC(=O)N[C@H](CO)C(=O)N[C@@H]([C@@H](C)CC(=O)O)C(=O)N[C@@H](CC(=O)c3ccccc3N)C(=O)O[C@@H]2C)cc1,MIC,[35],>= 8192 ug ml-1
